Results published in patent US6756380B1, “5-phenyl-pyrimidine derivatives” (Hoffmann-La Roche Inc., priority 1999, dated 2004).
Where a name gives a salt, the structure may show the parent alone. Values belong to the compound of their own block, whether it stands above or below them.

Tests used:
human NK1 receptor = biological target: T1, human NK1 receptor (Homo sapiens, UniProt P25103); test: NK1 receptor binding assay, displacement of [3H]substance P; conditions: [3H]substance P (0.6 nM) displacement; CHO cells infected with the human NK1 receptor (Semliki virus expression system); 60 min at room temperature; read-out: affinity to the NK-1 receptor, given as pKi (converted)
T1 construct: expressed in transfected cells; host or cells: CHO cells infected with Semliki virus expression system; membrane suspension
Experimental: The affinity of test compounds for the NK, receptor was evaluated at human NK, receptors in CHO cells infected with the human NK1 receptor (using the Semliki virus expression system) and radiolabelled with [^3H]substance P (final concentration 0.6 nM). Binding assays were performed in HEPES buffer (50 mM, pH 7.4) containing BSA (0.04 %) leupeptin (8 μg/ml), MnCl2 (3mM) and phosphoramidon (2 μM). Binding assays consisted of 250 μl of membrane suspension (1.25×10^5 cells/assay tube), […] of buffer of displacing agent and 125 μl of [^3H]substance P. Displacement curves were determined with at least seven concentrations of the compound. The assay tubes were incubated for 60 min at room temperature after which time the tube contents were rapidly filtered under vacuum through GF/C filters presoaked for 60 min with PEI (0.3%) with 2×2 ml washed of HEPES buffer (50 mM, pH 7.4). The radioactivity retained on the filters was measured by scintillation counting. All assays were performed in triplicate in at least 2 separate experiments.

T1 sequence (P25103 whole entry): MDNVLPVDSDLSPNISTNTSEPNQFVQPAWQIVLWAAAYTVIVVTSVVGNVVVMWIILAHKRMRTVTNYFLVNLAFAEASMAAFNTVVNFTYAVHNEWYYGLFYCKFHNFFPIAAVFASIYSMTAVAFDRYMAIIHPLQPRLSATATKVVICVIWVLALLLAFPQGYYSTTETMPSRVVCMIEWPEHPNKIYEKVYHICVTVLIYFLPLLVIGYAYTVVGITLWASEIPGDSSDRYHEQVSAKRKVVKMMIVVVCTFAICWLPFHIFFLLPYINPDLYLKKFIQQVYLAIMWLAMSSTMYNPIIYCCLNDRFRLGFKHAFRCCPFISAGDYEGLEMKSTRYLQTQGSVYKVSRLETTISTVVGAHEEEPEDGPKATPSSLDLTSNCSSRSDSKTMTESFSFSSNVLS

Compound: Cc1ccccc1-c1cnc(OCCN(C)C)nc1C(=O)N(C)Cc1cc(C(F)(F)F)cc(C(F)(F)F)c1 (as salt: hydrochloride) [Example 21, 2-(2-Dimethylamino-ethoxy)-5-o-tolyl-pyrimidine-4-carboxylic acid (3,5-bis-trifluoromethyl-benzyl)-methyl-amide]
melting point: 147 to 149 °C

Compound: CN1CCN(c2ncc(-c3ccccc3Cl)c(C(=O)N(C)Cc3cc(C(F)(F)F)cc(C(F)(F)F)c3)n2)CC1 [Example 13, 5-(2-Chloro-phenyl)-2-(4-methyl-piperazin-1-yl)-pyrimidine-4-carboxylic acid (3,5-bis-trifluoromethyl-benzyl)-methyl-amide]
Ki (human NK1 receptor): 6.17 nM

Compound: Cc1ccccc1-c1cnc(OCCN(C)C)nc1C(=O)N(C)Cc1cc(C(F)(F)F)cc(C(F)(F)F)c1 [Example 21, 2-(2-Dimethylamino-ethoxy)-5-o-tolyl-pyrimidine-4-carboxylic acid (3,5-bis-trifluoromethyl-benzyl)-methyl-amide]
Ki (human NK1 receptor): 2.19 nM

Second part, the compound after the results:

Ki (human NK1 receptor): 3.72 nM
Compound: CN1CCN(c2ncc(-c3cccc4ccccc34)c(C(=O)N(C)Cc3cc(C(F)(F)F)cc(C(F)(F)F)c3)n2)CC1 [Example 25, 2-(4-Methyl-piperazin-1-yl)-5-naphthalen-1-yl-pyrimidine-4-carboxylic acid (3,5-bis-trifluoromethyl-benzyl)-methyl-amide]

Ki (human NK1 receptor): 1.45 nM
Compound: Cc1cc(F)ccc1-c1cnc(NCCN(C)C)nc1C(=O)N(C)Cc1cc(C(F)(F)F)cc(C(F)(F)F)c1 [Example 54, 2-(2-Dimethylamino-ethylamino)-5-(4-fluoro-2-methyl-phenyl)-pyrimidine-4-carboxylic acid (3,5-bis-trifluoromethyl-benzyl)-methyl-amide]

Ki (human NK1 receptor): 0.661 nM
Compound: Cc1ccccc1-c1cnc(OCCN(C)C)nc1N(C)C(=O)C(C)(C)c1cc(C(F)(F)F)cc(C(F)(F)F)c1 [Example 79, 2-(3,5-Bis-trifluoromethyl-phenyl)-N-[2-(2-dimethylamino-ethoxy)-5-o-tolyl-pyrimidin-4-yl]-N-methyl-isobutyramide]
